The values that follow come from patent US8741644B2, “Method for producing mast cells from pluripotent stem cells” (Kyoto University, priority 2009, dated 2014).

Where no end group is shown, it is not given here.

The subject of the assay is hESC-MCs. Nature of the assay: Activation of MCs: histamine release from hESC-MCs upon stimulation (ELISA histamine kit). As to conditions: hESC (H1)-derived mast cells, 15 min at 37° C., FIG. 13. The class given is cell-based, human. The protocol:
For stimulation, substance P (Sigma), compound 48/80 or control medium was added to a 25 μl cell suspension (4×10^5 MCs/ml) in 96-well plates, and incubated for further 15 min at 37° C. The reaction was stopped by adding 200 μl ice-cold buffer. The cells were separated by centrifugation at 300×g for 7 min at 4° C., and the supernatant was collected. The cell pellet was resuspended in […] containing 0.5% Triton-X and 0.1% bovine serum albumin (BSA), quick frozen in liquid nitrogen and thawed 4 times. After centrifugation at 12,000×g for 15 min at 4° C., the soluble extract was collected. Histamine levels were measured by an ELISA histamine kit (Beckman Coulter)
In general terms: In an ELISA, binding on a coated surface is turned into a signal by an enzyme label.

With “substance P (RPKPQQFFGLM; ends and bridges not checked; UniProt P20366 58-68, looked up) [neuropeptide used as mast cell stimulant (Sigma)]”, the “degranulation to release histamine” value was “dose-dependent degranulation”.
